From US20240293359A1, “PROPHYLACTIC OR THERAPEUTIC DRUG FOR PARKINSON'S DISEASE” (Kyowa Pharma Chemical Co., Ltd., priority 2021, published 2024) come the findings set out here.

Converted amounts (≈) assume the structure as drawn.

The test system of data set [1] is dopamine oxidation accelerated in the presence of Fe^3+. Description: Suppression test of dopamine oxidation accelerated in presence of iron ions. It is filed as biochemical. The following applies: dopamine 2 mmol/L, Fe^3+ 2 mmol/L, hydrogen peroxide 1 moL/L, 0.2 M phosphate buffer pH 6.5, 25° C., 6 to 9 hours. On the procedure:
For a test, dopamine hydrochloride (DA·HCl), iron(III) nitrate 9-hydrate (Fe(NO3)3·9H2O) as Fe^3+ source, hydrogen peroxide solution as oxidant, glutathione trisulfide 2-hydrate, lipoic acid trisulfide, pantethine trisulfide, or N,N′-diacetyl-L-cysteine trisulfide as trisulfide compound were used.
A method of preparing each substance is as follows. • 10 mM DA-HCl aqueous solution: prepared by dissolving DA·HCl in purified water. • 20 mM Fe^3+ solution: prepared by dissolving Fe(NO3)3·9H2O in 5 mmol/L H2SO4. • 40 mM glutathione trisulfide solution: prepared by dissolving glutathione trisulfide 2-hydrate in 0.2 mol/L phosphate buffer solution (pH=6.5). • 40 mM lipoic acid trisulfide solution: prepared by dissolving lipoic acid trisulfide in 0.2 mol/L phosphate buffer solution (pH=6.5). • 400 mM pantethine trisulfide solution: prepared by dissolving pantethine trisulfide in 0.2 mol/L phosphate buffer solution (pH==6.5). • 40 mM N,N′-diacetyl-L-cysteine trisulfide: prepared by dissolving N,N′-diacetyl-L-cysteine trisulfide in 0.2 mol/L phosphate buffer solution (pH=6.5).
The pre-prepared preparation solution of each substance (mentioned above) and 0.2 M phosphate buffer solution (pH=6.5) were mixed in a 50 mL or 5 mL test tube to prepare 20 mL or 2 mL reaction solution so that each substance has the following concentration in the reaction solution. • Dopamine: 2 mmol/L • Fe^3+: 2 mmol/L • Hydrogen peroxide: 1 moL/L • Glutathione trisulfide: 3 concentrations (5, 10 or 20 mmol/L) • Lipoic acid trisulfide: 2 concentrations (10 or 20 mmol/L) • Pantethine trisulfide: 3 concentrations (100, 150 or 200 mmol/L) • N,N′-diacetyl-L-cysteine trisulfide: 3 concentrations (5, 10 or 20 mmol/L)
The reaction solution was stirred at 25° C., 500 rpm for 6 to 9 hours. The dopamine concentration in the reaction solution was quantified with high performance liquid chromatography (HPLC).
The conditions for HPLC is as follows. • Detector: Ultraviolet absorptiometer (measuring wavelength: 280 nm) • Column: Inertsil ODS-2 (4.6 mm I.D.×150 mm, 5 μm) • Column temperature: constant temperature around 35° C. • Mobile phase: prepared by adding 0.2 mol/L citric acid aqueous solution to 0.2 mol/L disodium hydrogenphosphate aqueous solution to adjust to pH 3.0. • Flow rate: 0.7 mL/min • Amount infused: 20 μL • Area measurement range: for 30 minutes after infusion of sample solution Preparation of sample solution: prepared by diluting 100 μL reaction solution 10-fold with water to form sample solution • Retention time: Dopamine (DA) approximately 7 minutes

The nature of data set [2]: Solubility in water at 20° C. It is filed as physicochemical. The settings on record: free lipoic acid trisulfide.

On to `O=C(O)CCCCC1CCSSS1` (racemic) [lipoic acid trisulfide], for which, in data set [1] (lipoic acid trisulfide 10 or 20 mmol/L), the “suppression of dopamine oxidation in the presence of Fe^3+ (dopamine concentration by HPLC, FIG. 2)” value was “suppressed the dopamine oxidation”. Consider `N[C@@H](CCC(=O)N[C@@H](CSSSC[C@H](NC(=O)CC[C@H](N)C(=O)O)C(=O)NCC(=O)O)C(=O)NCC(=O)O)C(=O)O` [Glutathione trisulfide, glutathione trisulfide], for which the “suppression of dopamine oxidation in the presence of Fe^3+ (dopamine concentration by HPLC, FIG. 1)” value in data set [1] (glutathione trisulfide 5, 10 or 20 mmol/L) is “suppressed the dopamine oxidation”. As a reminder, the solubility is the dissolved amount per volume that the medium holds. Lower therefore signals little dissolved substance. As for `O=C(O)CCCC[C@@H]1CCSSS1` [Lipoic acid trisulfide R body, (R)-lipoic acid trisulfide], the solubility in data set [2] came to 300 µg/mL (≈ 1260 µM). Regarding `CC(=O)N[C@@H](CSSSC[C@H](NC(C)=O)C(=O)O)C(=O)O` [N,N′-diacetyl-L-cysteine trisulfide], the “suppression of dopamine oxidation in the presence of Fe^3+ (dopamine concentration by HPLC, FIG. 4)” value in data set [1] (N,N′-diacetyl-L-cysteine trisulfide 5, 10 or 20 mmol/L) is given as “suppressed the dopamine oxidation”.

Regarding `CC(C)(CO)[C@@H](O)C(=O)NCCC(=O)NCCSSSCCNC(=O)CCNC(=O)[C@H](O)C(C)(C)CO` [pantethine trisulfide], in data set [1] (pantethine trisulfide 100, 150 or 200 mmol/L), the “suppression of dopamine oxidation in the presence of Fe^3+ (dopamine concentration by HPLC, FIG. 3)” value is given as “suppressed the dopamine oxidation”.
